# Values quoted from earlier work, collected in patent US20250049733A1, “PHARMACEUTICAL COMPOSITION FOR THE TREATMENT OF INFECTIOUS RESPIRATORY DISEASES CAUSED BY INFLUENZA AND SARS-COV-2, AMONG OTHERS” (ALPARIS, S.A. DE C.V., priority 2021, published 2025).
# Legend:
# [1] = tested on: tumor necrosis factor-alpha (TNF-α) and interleukin-6 (IL-6); conditions: randomized controlled trials
# [2] = tested on: Respiratory Syncytal Virus (RSV)
# [3] = in vivo
# rheumatoid arthritis = conditions: 8 weeks of treatment with 1 g of curcumin daily; meta-analysis
structure (smiles),measurement,setting,value
"COc1cc(/C=C/C(=O)CC(=O)/C=C/c2ccc(O)c(OC)c2)ccc1O [curcumin, (1E,6E)-1,7-bis(4-hydroxy-3-methoxyphenyl)-1,6-heptadiene-3,5-dione]","IC50, antiviral action against SARS-CoV2",SARS-CoV2 viruses,7.9 µg/mL
same,"IC50, antiviral action against Hepatitis",Hepatitis,1.68 µg/mL
same,secretion of TNF-α and IL-6,[1],significantly reduces
same,"IC50, antiviral action against Respiratory Syncytal Virus (RSV)",[2],10 µg/mL
same,"IC50, antiviral action against Herpes simplex virus",Herpes simplex virus,11.05 µg/mL
same,"IC50, antiviral action against influenza",influenza,0.17 µg/mL
same,half-life,[3],about 8 hours
same,symptoms associated with inflammation in rheumatoid arthritis,rheumatoid arthritis,can reduce symptoms associated with inflammation
